Experimental data published in PubChem BioAssay (NCI).
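Compound exposure: 48 hours, 5 concentrations, 96-well plates. GI50 marks 50% less growth. TGI denotes the concentration required for complete inhibition of growth.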

Key:
Experiment in all cases: NCI anticancer screen, dose series, 48 h
HCC-2998 colon = test system: HCC-2998 colon
SK-MEL-28 melanoma = test system: SK-MEL-28 melanoma
SNB-75 CNS = test system: SNB-75 CNS
U251 CNS = test system: U251 CNS
SR leukemia = test system: SR leukemia
SF-539 CNS = test system: SF-539 CNS
A549 NSCLC = test system: A549 NSCLC
NCI-H226 lung = test system: NCI-H226 lung
SK-MEL-5 melanoma = test system: SK-MEL-5 melanoma
HOP-92 NSCLC = test system: HOP-92 NSCLC

Compound	TGI (HCC-2998 colon) [µM]	TGI (SK-MEL-28 melanoma) [µM]	TGI (SNB-75 CNS) [µM]	TGI (U251 CNS) [µM]	TGI (SR leukemia) [µM]	TGI (SF-539 CNS) [µM]	TGI (A549 NSCLC) [µM]	TGI (NCI-H226 lung) [µM]	TGI (SK-MEL-5 melanoma) [µM]	TGI (HOP-92 NSCLC) [µM]	GI50 (SK-MEL-5 melanoma) [µM]	GI50 (HOP-92 NSCLC) [µM]	GI50 (HCC-2998 colon) [µM]	GI50 (SK-MEL-28 melanoma) [µM]	GI50 (SNB-75 CNS) [µM]	GI50 (U251 CNS) [µM]	GI50 (SR leukemia) [µM]	GI50 (SF-539 CNS) [µM]	GI50 (A549 NSCLC) [µM]	GI50 (NCI-H226 lung) [µM]
O=C1Nc2ccccc2Nc2nc3cccccc-3c21	> 100	> 100	> 100	> 100	> 100	> 100	> 100	> 100	> 100	> 100	–	–	–	–	–	–	–	–	–	–
CC(C)OP(=O)(OC(C)C)/C(=N/N)NNc1ccc([N+](=O)[O-])cc1	> 100	> 100	> 100	> 100	> 100	> 100	> 100	> 100	> 100	> 100	–	–	–	–	–	–	–	–	–	–
CC(C)(C)OC(=O)NC(Cc1cnc[nH]1)C(=O)N1CCCC1C(N)=O (stereo unspecified)	> 100	> 100	> 100	> 100	> 100	> 100	> 100	> 100	> 100	> 100	–	–	–	–	–	–	–	–	–	–
N#CC1CCN2N=C(c3ccccc3)SC12c1ccccc1 (stereo unspecified)	> 100	> 100	> 100	> 100	> 100	> 100	> 100	> 100	> 100	> 100	–	–	–	–	–	–	–	–	–	–
CN(C)CCCNc1nnc(NCCCN(C)C)c2c(=O)c3sccc3[nH]c12	23.7	> 84.9	19.6	> 100	> 30.5	30.1	> 78.9	39.1	16	> 100	–	–	–	–	–	–	–	–	–	–
COc1cc2c(cc1OC)C1(c3ccccc3)CN(C2)Cc2cc(OC)c(OC)cc21	50.1	> 100	92.3	54.6	32.2	41.9	> 100	91.4	53.3	> 100	–	–	–	–	–	–	–	–	–	–
COC(=O)N/N=C/c1oc(-c2ccccc2)c(-c2ccccc2)c1[N+](=O)[O-]	> 100	> 100	> 100	> 100	> 100	> 100	> 100	> 100	> 100	> 100	–	–	–	–	–	–	–	–	–	–
Cc1ccc2c(c1)[nH]c(=S)n2C=C1C(=O)CC(C)(C)CC1=O	> 100	> 100	> 100	> 100	> 100	> 100	> 100	> 100	> 100	> 100	–	–	–	–	–	–	–	–	–	–
Cc1ccc(S(=O)(=O)Oc2cc(S(=O)(=O)O)cc3cc(S(=O)(=O)O)cc(N)c23)cc1	> 100	> 100	> 100	> 100	> 100	> 100	> 100	> 100	> 100	> 100	–	–	–	–	–	–	–	–	–	–
CC1C/C(=N\N(C)C)C(C#N)(C#N)C1(C#N)C#N (stereo unspecified)	31.5	> 78.6	27	40.1	17.2	34.8	69.5	> 65.9	44.2	11.6	–	–	–	–	–	–	–	–	–	–
N#CC(C#N)=C(N)/C(C#N)=C/c1cc(O)c(O)c(Br)c1	> 100	> 100	> 100	> 100	> 100	> 100	> 100	> 79.1	> 100	> 100	–	–	–	–	–	–	–	–	–	–
COC(=O)C(Cc1ccccc1I)C1=CCC2(CC1)OCCO2 (stereo unspecified)	> 100	> 100	57.4	> 100	52	> 100	82.8	> 100	34.1	97.2	–	–	–	–	–	–	–	–	–	–
CCOC(=O)c1cc(C2CCN(Cc3ccccc3)C2=O)c(C(=O)C(=[N+]=[N-])C(C)=O)[nH]1 (stereo unspecified)	> 100	> 100	> 100	> 100	> 100	> 100	> 100	> 100	> 100	> 100	–	–	–	–	–	–	–	–	–	–
COc1ccc2c(c1)nc1n2C(c2c(F)cccc2Cl)SC1 (stereo unspecified)	> 39.8	37.2	7.85	> 35.4	> 36.4	16.1	> 50.6	43.4	> 43.2	> 100	–	–	–	–	–	–	–	–	–	–
C#CCOC(=O)C(N)CSSCC(N)C(=O)O (stereo unspecified)	> 100	> 100	> 100	> 100	> 100	> 100	> 100	> 100	> 100	> 100	–	–	–	–	–	–	–	–	–	–
CC(=O)NCCc1c[nH]c2ccc(Cl)cc12	> 100	> 100	> 100	> 100	> 100	> 100	> 100	> 100	> 100	> 100	–	–	–	–	–	–	–	–	–	–
Cc1nc2ccccc2c(=O)n1NC(=O)c1ccccc1O	> 100	> 100	> 100	> 100	> 100	> 100	> 100	> 100	> 100	> 100	–	–	–	–	–	–	–	–	–	–

Compound	TGI (HCC-2998 colon) [µM]	TGI (SK-MEL-28 melanoma) [µM]	TGI (SNB-75 CNS) [µM]	TGI (U251 CNS) [µM]	TGI (SR leukemia) [µM]	TGI (SF-539 CNS) [µM]	TGI (A549 NSCLC) [µM]	TGI (NCI-H226 lung) [µM]	TGI (SK-MEL-5 melanoma) [µM]	TGI (HOP-92 NSCLC) [µM]	GI50 (SK-MEL-5 melanoma) [µM]	GI50 (HOP-92 NSCLC) [µM]	GI50 (HCC-2998 colon) [µM]	GI50 (SK-MEL-28 melanoma) [µM]	GI50 (SNB-75 CNS) [µM]	GI50 (U251 CNS) [µM]	GI50 (SR leukemia) [µM]	GI50 (SF-539 CNS) [µM]	GI50 (A549 NSCLC) [µM]	GI50 (NCI-H226 lung) [µM]
CC1=CCC[C@@H]2[C@@](C)(Cc3cc(O)ccc3O)[C@H](C)CC[C@@]12C	22.5	25.5	17.9	15.9	12.6	18.4	17.6	39.3	19.1	15.2	–	–	–	–	–	–	–	–	–	–
CCCC(=O)OC[n+]1cccc(-c2c(COC(=O)NC(C)C)c(COC(=O)NC(C)C)c3n2CCC3)c1	> 100	> 100	> 100	> 100	> 100	60.9	> 100	> 100	> 100	> 88.7	–	–	–	–	–	–	–	–	–	–
Oc1c(-c2ccccc2)sc2ccccc12	39	> 100	52.1	> 100	34.9	> 100	81.4	64.4	54.5	57.7	–	–	–	–	–	–	–	–	–	–
CC(=O)OC1CC2(c3ccccc3)C(=O)c3ccccc3N2O1 (stereo unspecified)	> 100	> 100	> 100	> 100	> 100	> 100	> 100	> 100	> 100	> 100	–	–	–	–	–	–	–	–	–	–
Cn1cc(C[C@@H](N)C(=O)O)c2ccccc21	> 100	> 100	> 100	> 100	> 100	> 100	> 100	> 100	> 100	> 100	> 100	> 100	–	–	–	–	–	–	–	–
O=C(N/N=C1/C(=O)c2c3ccccc3cc3cccc1c23)c1cccc(Cl)c1	> 100	> 100	> 100	> 100	> 100	> 100	> 100	> 100	> 100	> 100	–	–	–	–	–	–	–	–	–	–
CC(C)CC(=O)NC(NC(C)C)(C(F)(F)F)C(F)(F)F	> 100	> 100	> 100	> 100	> 100	> 100	> 100	> 100	> 100	> 100	–	–	–	–	–	–	–	–	–	–
O=P1(Oc2ccc(Cl)cc2)OCCS1 (stereo unspecified)	> 100	> 100	> 100	> 100	> 100	> 100	> 100	> 100	> 100	> 100	–	–	–	–	–	–	–	–	–	–
CCOc1ccc2c(ccc(/C=C\c3cc(C)c4cccnc4c3O)[n+]2C)c1	> 100	14.6	15	4.53	5.73	10.9	26.4	3.77	3.48	3.36	–	–	–	–	–	–	–	–	–	–
O=c1cc(CC(O)(C(F)(F)Cl)C(F)(F)Cl)[nH]n1-c1ccccc1	> 100	> 100	> 100	> 100	> 100	> 100	> 100	> 100	> 100	> 100	–	–	–	–	–	–	–	–	–	–
O=C1C2CCC(C2)C12CC1(c3ccccc3)C(=O)c3ccccc3N1O2 (stereo unspecified)	> 100	> 100	> 100	> 100	> 100	> 100	> 100	> 100	> 100	> 100	–	–	–	–	–	–	–	–	–	–
CCOc1ccc(/C=C/[N+](=O)[O-])cc1	3.94	30.9	30.9	8.83	6.37	6.4	27.7	11.7	18.5	28.1	5.78	12.9	1.82	16.6	13	3.1	2.56	2.35	12.6	3.06
CC12CC[C@H](O)C(C)(C)[C@H]1CC[C@](C)(O)C2COc1ccc2ccc(=O)oc2c1 (stereo partly specified)	> 100	> 100	> 100	> 100	> 100	> 100	> 100	> 100	–	> 100	–	–	–	–	–	–	–	–	–	–
Cc1ccc(S(=O)(=O)Oc2ccc(OS(=O)(=O)c3ccc(C)cc3)c3c2C(=O)c2ccccc2C3=O)cc1	> 100	> 100	64.1	> 100	> 100	> 100	> 100	> 100	> 100	> 100	–	–	–	–	–	–	–	–	–	–
CCCN(CCCCN1C(=O)c2ccccc2C1=O)CC1COc2ccccc2O1 (stereo unspecified)	> 100	> 100	> 100	> 100	77.6	> 100	> 100	> 100	> 100	> 100	–	–	–	–	–	–	–	–	–	–
COP1(=O)NCc2ncccc2O1 (stereo unspecified)	> 100	> 100	> 100	> 100	> 100	> 100	> 100	> 100	> 100	> 100	–	–	–	–	–	–	–	–	–	–
CC1(C)CN=C(Nc2ccc(Cl)cc2)S1	> 100	> 100	> 100	> 100	> 100	> 100	> 100	> 100	> 100	> 100	–	–	–	–	–	–	–	–	–	–
